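Protocol summary: plate cells (96-well), add compound at 5 concentrations, incubate 48 h, interpolate endpoints linearly. The concentration for 50% growth inhibition is given as GI50. TGI is the concentration that stops growth completely.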
Experiments:
Assay in all cases: DTP human tumour cell line panel, 48 h
786-0 renal = system: 786-0 renal
A498 renal = system: A498 renal
A549 NSCLC = system: A549 NSCLC
ACHN renal = system: ACHN renal
BT-549 breast = system: BT-549 breast
CAKI-1 renal = system: CAKI-1 renal
CCRF-CEM leukemia = system: CCRF-CEM leukemia
COLO 205 colon = system: COLO 205 colon
DU-145 prostate = system: DU-145 prostate
EKVX NSCLC = system: EKVX NSCLC
HCC-2998 colon = system: HCC-2998 colon
HCT-116 colon = system: HCT-116 colon
HCT-15 colon = system: HCT-15 colon
HOP-92 NSCLC = system: HOP-92 NSCLC
HS 578T breast = system: HS 578T breast
HT29 colon = system: HT29 colon
IGROV1 ovarian = system: IGROV1 ovarian
K-562 leukemia = system: K-562 leukemia
KM12 colon = system: KM12 colon
LOX IMVI melanoma = system: LOX IMVI melanoma
MALME-3M melanoma = system: MALME-3M melanoma
MCF7 breast = system: MCF7 breast
MDA-MB-231 breast = system: MDA-MB-231 breast
MDA-MB-435 = system: MDA-MB-435
MOLT-4 leukemia = system: MOLT-4 leukemia
NCI-H226 lung = system: NCI-H226 lung
NCI-H23 lung = system: NCI-H23 lung
NCI-H460 lung = system: NCI-H460 lung
NCI-H522 lung = system: NCI-H522 lung
NCI/ADR-RES ovarian = system: NCI/ADR-RES ovarian
OVCAR-3 ovarian = system: OVCAR-3 ovarian
OVCAR-4 ovarian = system: OVCAR-4 ovarian
OVCAR-5 ovarian = system: OVCAR-5 ovarian
OVCAR-8 ovarian = system: OVCAR-8 ovarian
PC-3 prostate = system: PC-3 prostate
RPMI-8226 leukemia = system: RPMI-8226 leukemia
RXF 393 renal = system: RXF 393 renal
SF-268 CNS = system: SF-268 CNS
SF-295 CNS = system: SF-295 CNS
SF-539 CNS = system: SF-539 CNS
SK-MEL-2 melanoma = system: SK-MEL-2 melanoma
SK-MEL-28 melanoma = system: SK-MEL-28 melanoma
SK-MEL-5 melanoma = system: SK-MEL-5 melanoma
SK-OV-3 ovarian = system: SK-OV-3 ovarian
SN12C renal = system: SN12C renal
SNB-19 CNS = system: SNB-19 CNS
SNB-75 CNS = system: SNB-75 CNS
SR leukemia = system: SR leukemia
SW-620 colon = system: SW-620 colon
T-47D breast = system: T-47D breast
TK-10 renal = system: TK-10 renal
U251 CNS = system: U251 CNS
UACC-257 melanoma = system: UACC-257 melanoma
UACC-62 melanoma = system: UACC-62 melanoma
UO-31 renal = system: UO-31 renal
HL-60(TB) leukemia = system: HL-60(TB) leukemia
HOP-62 NSCLC = system: HOP-62 NSCLC
M14 melanoma = system: M14 melanoma

COc1ccc2c(c1)CCC1C2CC[C@@]2(C)C1CC[C@@H]2NC(=O)Cc1ccc(O)c(O)c1 (stereo not given in full)
GI50 (786-0 renal): 5 µM | TGI (786-0 renal): 17.7 µM | GI50 (A498 renal): 18.8 µM | TGI (A498 renal): 33.7 µM | GI50 (A549 NSCLC): 14.6 µM | TGI (A549 NSCLC): 29.9 µM | GI50 (ACHN renal): 6.01 µM | TGI (ACHN renal): 18.9 µM | GI50 (BT-549 breast): 9.66 µM | TGI (BT-549 breast): 25.5 µM | GI50 (CAKI-1 renal): 8.53 µM | TGI (CAKI-1 renal): 21.7 µM | GI50 (CCRF-CEM leukemia): 2.86 µM | TGI (CCRF-CEM leukemia): 17.6 µM | GI50 (COLO 205 colon): 3.34 µM | TGI (COLO 205 colon): 12.5 µM | GI50 (DU-145 prostate): 8.47 µM | TGI (DU-145 prostate): 20.8 µM | GI50 (EKVX NSCLC): 13.5 µM | TGI (EKVX NSCLC): 31.4 µM | GI50 (HCC-2998 colon): 13.4 µM | TGI (HCC-2998 colon): 28.2 µM | GI50 (HCT-116 colon): 3.53 µM | TGI (HCT-116 colon): 18.9 µM | GI50 (HCT-15 colon): 3.74 µM | TGI (HCT-15 colon): 16.7 µM | GI50 (HOP-92 NSCLC): 14.2 µM | TGI (HOP-92 NSCLC): 30.8 µM | GI50 (HS 578T breast): 7.22 µM | TGI (HS 578T breast): 43.9 µM | GI50 (HT29 colon): 10.3 µM | TGI (HT29 colon): 25.3 µM | GI50 (IGROV1 ovarian): 2.29 µM | TGI (IGROV1 ovarian): 7.68 µM | GI50 (K-562 leukemia): 4.31 µM | TGI (K-562 leukemia): > 100 µM | GI50 (KM12 colon): 5.47 µM | TGI (KM12 colon): 21.7 µM | GI50 (LOX IMVI melanoma): 8.15 µM | TGI (LOX IMVI melanoma): 20.6 µM | GI50 (MALME-3M melanoma): 9.13 µM | TGI (MALME-3M melanoma): 41 µM | GI50 (MCF7 breast): 11.2 µM | TGI (MCF7 breast): 32.1 µM | GI50 (MDA-MB-231 breast): 4.05 µM | TGI (MDA-MB-231 breast): 16.9 µM | GI50 (MDA-MB-435): 4.63 µM | TGI (MDA-MB-435): 17.2 µM | GI50 (MOLT-4 leukemia): 2.76 µM | TGI (MOLT-4 leukemia): 83 µM | GI50 (NCI-H226 lung): 10.1 µM | TGI (NCI-H226 lung): 35.3 µM | GI50 (NCI-H23 lung): 11.9 µM | TGI (NCI-H23 lung): 27.6 µM | GI50 (NCI-H460 lung): 12.3 µM | TGI (NCI-H460 lung): 31.9 µM | GI50 (NCI-H522 lung): 1.9 µM | TGI (NCI-H522 lung): 4.25 µM | GI50 (NCI/ADR-RES ovarian): 10.7 µM | TGI (NCI/ADR-RES ovarian): 33.6 µM | GI50 (OVCAR-3 ovarian): 3.7 µM | TGI (OVCAR-3 ovarian): 19.2 µM | GI50 (OVCAR-4 ovarian): 4.26 µM | TGI (OVCAR-4 ovarian): 18.6 µM | GI50 (OVCAR-5 ovarian): 19.8 µM | TGI (OVCAR-5 ovarian): 37.7 µM | GI50 (OVCAR-8 ovarian): 8.71 µM | TGI (OVCAR-8 ovarian): 30.8 µM | GI50 (PC-3 prostate): 6.3 µM | TGI (PC-3 prostate): 19.4 µM | GI50 (RPMI-8226 leukemia): 3.68 µM | TGI (RPMI-8226 leukemia): > 100 µM | GI50 (RXF 393 renal): 10.7 µM | TGI (RXF 393 renal): 27.3 µM | GI50 (SF-268 CNS): 7.48 µM | TGI (SF-268 CNS): 25.3 µM | GI50 (SF-295 CNS): 13.4 µM | TGI (SF-295 CNS): 32.1 µM | GI50 (SF-539 CNS): 4.84 µM | TGI (SF-539 CNS): 17.3 µM | GI50 (SK-MEL-2 melanoma): 15.2 µM | TGI (SK-MEL-2 melanoma): 33.8 µM | GI50 (SK-MEL-28 melanoma): 9.9 µM | TGI (SK-MEL-28 melanoma): 24.2 µM | GI50 (SK-MEL-5 melanoma): 8.96 µM | TGI (SK-MEL-5 melanoma): 21.8 µM | GI50 (SK-OV-3 ovarian): 16.7 µM | TGI (SK-OV-3 ovarian): 33.4 µM | GI50 (SN12C renal): 5.79 µM | TGI (SN12C renal): 19.6 µM | GI50 (SNB-19 CNS): 13.3 µM | TGI (SNB-19 CNS): 33.4 µM | GI50 (SNB-75 CNS): 3.44 µM | TGI (SNB-75 CNS): 12.5 µM | GI50 (SR leukemia): 3.46 µM | TGI (SR leukemia): 18.7 µM | GI50 (SW-620 colon): 6.41 µM | TGI (SW-620 colon): 25 µM | GI50 (T-47D breast): 6.91 µM | TGI (T-47D breast): 72.8 µM | GI50 (TK-10 renal): 8.86 µM | TGI (TK-10 renal): 22.1 µM | GI50 (U251 CNS): 4.94 µM | TGI (U251 CNS): 18.8 µM | GI50 (UACC-257 melanoma): 17 µM | TGI (UACC-257 melanoma): 30.8 µM | GI50 (UACC-62 melanoma): 4.14 µM | TGI (UACC-62 melanoma): 14.8 µM | GI50 (UO-31 renal): 3.56 µM | TGI (UO-31 renal): 15.2 µM

O=C(OC1=CCN(Br)C1=O)C1=C(O)C(=O)N(Br)C1
TGI (786-0 renal): 30.4 µM | TGI (A498 renal): > 100 µM | TGI (A549 NSCLC): > 100 µM | TGI (ACHN renal): > 100 µM | TGI (BT-549 breast): 46 µM | TGI (CAKI-1 renal): > 100 µM | TGI (CCRF-CEM leukemia): > 100 µM | TGI (COLO 205 colon): 54.4 µM | TGI (DU-145 prostate): > 100 µM | TGI (EKVX NSCLC): 77.8 µM | TGI (HCC-2998 colon): > 100 µM | TGI (HCT-116 colon): 35.6 µM | TGI (HCT-15 colon): > 100 µM | TGI (HL-60(TB) leukemia): 52.2 µM | TGI (HOP-62 NSCLC): 51.7 µM | TGI (HS 578T breast): > 100 µM | TGI (IGROV1 ovarian): > 100 µM | TGI (K-562 leukemia): > 100 µM | TGI (KM12 colon): > 100 µM | TGI (LOX IMVI melanoma): 54 µM | TGI (M14 melanoma): > 100 µM | TGI (MALME-3M melanoma): > 100 µM | TGI (MCF7 breast): > 100 µM | TGI (MDA-MB-231 breast): 86.3 µM | TGI (MDA-MB-435): > 100 µM | TGI (MOLT-4 leukemia): 87.7 µM | TGI (NCI-H226 lung): > 100 µM | TGI (NCI-H23 lung): > 100 µM | TGI (NCI-H460 lung): > 100 µM | TGI (NCI-H522 lung): 31.4 µM | TGI (NCI/ADR-RES ovarian): > 100 µM | TGI (OVCAR-3 ovarian): 51.6 µM | TGI (OVCAR-4 ovarian): > 100 µM | TGI (OVCAR-5 ovarian): 52.8 µM | TGI (OVCAR-8 ovarian): > 100 µM | TGI (PC-3 prostate): > 100 µM | TGI (RPMI-8226 leukemia): > 100 µM | TGI (RXF 393 renal): 38.5 µM | TGI (SF-268 CNS): 67.3 µM | TGI (SF-295 CNS): 69.7 µM | TGI (SK-MEL-2 melanoma): > 100 µM | TGI (SK-MEL-28 melanoma): 41.4 µM | TGI (SK-MEL-5 melanoma): 33.5 µM | TGI (SK-OV-3 ovarian): 71.2 µM | TGI (SN12C renal): 31 µM | TGI (SNB-19 CNS): 43.6 µM | TGI (SNB-75 CNS): 61.3 µM | TGI (SR leukemia): 52.3 µM | TGI (SW-620 colon): 65.2 µM | TGI (T-47D breast): 45.2 µM | TGI (TK-10 renal): > 100 µM | TGI (U251 CNS): 58.1 µM | TGI (UACC-257 melanoma): 87.6 µM | TGI (UACC-62 melanoma): 36.3 µM | TGI (UO-31 renal): > 100 µM
